Reference: ChEMBL document CHEMBL1275472, “Cell-penetrating peptide TP10 shows broad-spectrum activity against both Plasmodium falciparum and Trypanosoma brucei brucei” (Antimicrob Agents Chemother, 2008)
Active and inactive are the calls of the source. The rule behind the calls is not given here.

Key:
Plasmodium falciparum [1] = assay: Antiplasmodial activity against Plasmodium falciparum 3D7 clone infected in Anopheles gambiae Keele vector assessed as prevalence of […] infection at 30 uM; assay type: functional
Plasmodium falciparum [2] = assay: Antiplasmodial activity against asynchronous blood-stage Plasmodium falciparum HB3 infected in human RBC at 30 uM after 24 hrs by Malstat assay; assay type: functional, organism-based
Plasmodium falciparum [3] = assay: Antiplasmodial activity against asynchronous blood-stage Plasmodium falciparum HB3 infected in human RBC at 30 uM after 24 hrs by microscopy; assay type: functional, organism-based
Homo sapiens = organism: Homo sapiens; assay: Toxicity in human RBC assessed as induction of hemolysis at 1 to 30 uM
[4] = tested on: Trypanosoma brucei brucei; assay: Trypanocidal activity against bloodstream form of Trypanosoma brucei brucei 427 assessed as lysis half-time at 5.4 uM by alamar blue assay; assay type: functional, organism-based
Plasmodium falciparum [5] = assay: Antiplasmodial activity against asynchronous blood-stage Plasmodium falciparum HB3 infected in human RBC at 30 uM after 15 hrs by Malstat assay; assay type: functional, organism-based
[6] = tested on: Trypanosoma brucei brucei; assay: […] activity against bloodstream form of Trypanosoma brucei 427; assay type: functional, organism-based
Plasmodium falciparum [7] = assay: Antiplasmodial activity against asynchronous blood-stage Plasmodium falciparum HB3 infected in human RBC at 30 uM after 21 hrs by Malstat assay; assay type: functional, organism-based
Plasmodium falciparum [8] = assay: Antiplasmodial activity against asynchronous blood-stage Plasmodium falciparum HB3 infected in human RBC at 30 uM after 18 hrs by Malstat assay; assay type: functional, organism-based

Row | Compound | Activity (Plasmodium falciparum [1]) | Activity (Plasmodium falciparum [2]) | Activity (Plasmodium falciparum [3]) | Activity (Homo sapiens) | Activity [4] | Activity (Plasmodium falciparum [5]) | IC50 [6] | Activity (Plasmodium falciparum [7]) | Activity (Plasmodium falciparum [8])
1 | H-LLIILRRRIRKQAHAHSK-OH | 44% | inactive | inactive |  |  |  |  |  | 
2 | CC[C@H](C)[C@H](NC(=O)[C@H](CCCCN)NC(=O)[C@H](CCCCN)NC(=O)[C@H](C)NC(=O)[C@H](CC(C)C)NC(=O)[C@H](C)NC(=O)[C@H](C)NC(=O)[C@H](CC(C)C)NC(=O)[C@H](C)NC(=O)[C@H](CCCCN)NC(=O)[C@H](CC(C)C)NC(=O)[C@H](CC(N)=O)NC(=O)[C@@H](NC(=O)[C@H](CCCCN)NC(=O)CNC(=O)[C@H](CC(C)C)NC(=O)[C@H](CC(C)C)NC(=O)[C@H](Cc1ccc(O)cc1)NC(=O)CNC(=O)[C@H](C)N)[C@@H](C)CC)C(=O)N[C@@H](CC(C)C)C(=O)O | 30% | Active | Active | Non-toxic | Active | Active | 2700 nM | Active | Active
